Source: patent US10683315B2, “Prodrug of an HCV NS5B polymerase inhibitor and method of production and application thereof” (priority 2017, dated 2020)
Values joined by “and” are separate entries in the source; they are usually repeats but may differ in a detail not shown here. Identical values can stand only once.

Key:
[1] = Stability in human liver S9 fraction; format: in vitro ADME
Protocol: Proteins were deposited on ice for 15 min. The samples were then centrifuged for 10 min at 3000 rpm, and the supernatant (150 μl) was sampled for analysis.
Tolbutamide (Fluka) was used as the internal standard.

Huh7 cells = test: Cytotoxicity in Huh7 cells, ATPLite kit; format: cell-based, human
Protocol: The cytotoxicity of tested compositions comprising the prodrugs was evaluated concurrently in the same cell line Huh7 using an ATPLite kit (Perkin-Elmer, Boston, USA) in accordance with the manufacturer's instruction. The cell suspension in complete culture medium (DMEM 1×, Cellgro; cat. #10-013-CV) was transferred into 96-well plates with black walls and transparent bottoms (50 μl/well) with a final density of 7500 cells per well. Eighteen hours after planting the cells, serial drug dilutions (50 μl/well) were added. The plate with cells was incubated for 4 days at 37° C. in a humidified 5% CO2 atmosphere. The cells were then twice washed with PBS (200 μl/well) and lysed by adding a lytic buffer (50 μl/well); all reagents were taken from the ATPLite kit. Following a 5-minute stirring on a shaker, a substrate was added (50 μl/well). After an additional 5-minute incubation, the plate was kept for 10 minutes in the dark, and luminescence in the wells was measured using the multifunctional reader Victor^3 V 1420 (Perkin Elmer). The values of CC50 for tested prodrugs were measured from a cytotoxicity curve plotted using the GraphPad Prizm software.

[2] = from Sofia et al. J. Med. Chem. 2010; cited from earlier work

SMILES | metabolic rate in human liver microsomal S9 fraction, times faster than cyclohexyl ester of formula A1 ([1]; ratio of T1/2 vs A1) [times] | metabolic rate in human liver microsomal S9 fraction, times faster than Sovaldi ([1]; ratio of T1/2 vs Sovaldi) [times] | CC90 (Huh7 cells; Huh7, 10% FBS) [µM] | CC50 (Huh7 cells; Huh7, ATPLite, 4 days) [µM] | T1/2 human S9 [2]
C[C@H](N[P@](=O)(OC[C@H]1O[C@@H](n2ccc(=O)[nH]c2=O)[C@](C)(F)[C@@H]1O)Oc1ccccc1)C(=O)OC1CCC1 [Prodrug 1.1, cyclobutyl (S)-2-{(S)-[(2R,3R,4R,5R)-5-(3,4-dihydro-2,4-dioxo-2H-pyrimidin-1-yl)-3-hydroxy-4-methyl-4-fluoro-tetrahydrofuran-2-ylmethoxy]-phenoxy-phosphorylamino}-propanoate] | 28 | 11 | > 100 | > 100 | –
CC(C)OC(=O)[C@H](C)N[P@](=O)(OC[C@H]1O[C@@H](n2ccc(=O)[nH]c2=O)[C@](C)(F)[C@@H]1O)Oc1ccccc1 [Sovaldi®, Sofosbuvir] | – | – | – | – | 34.2 min and 32.4 min
